Results published in PMC2546444, “Anti-Plasmodium Activity of Angiotensin II and Related Synthetic Peptides” (PLoS ONE, 2008).
Positions of bridges follow the written chain, without caps; N, C: chain ends. Residues, ends and D or L forms follow the SMILES beside them. No end group written: not given here.

What was measured:
[1] = test system: fresh human erythrocytes; experiment: Hemolytic activity; type: cell-based; details: peptide 0.19 to 100 μM; 0.4% human erythrocytes in PBS pH 7.4, 1 h at 37°C, read at 405 nm; triplicate
Experimental: Hemolytic activity was evaluated on fresh human erythrocytes washed three times with phosphate-buffered saline (PBS: 10 mM Na2HPO4, 1.8 mM K2-HPO4, pH 7.4, containing 140 mM NaCl and 2.7 mM KCl) ). Serial dilutions of the peptides with concentrations varying between 0.19–100 μM were incubated in Eppendorf tubes with a suspension of 0.4% erythrocytes in PBS. After 1 h at 37°C, the test tubes were centrifuged at 300g for 5 min at 5°C. Fifty microliter aliquots of the supernatants were transferred to 96-well plates and hemolysis was monitored at 405 nm using a microtiter plate reader. Negative and positive controls were prepared in PBS and in PBS supplemented with 0.1% SDS, respectively. Ang ll of the experiments was performed in triplicate.

[2] = 25% pooled non-heat inactivated human serum in PBS, 37°C; 20 μl of 10 mg/ml stock in 1 ml; sampling 0-120 min; LC/ESI-MS peak area; triplicates; data not shown
[3] = test system: Ae.aegypti mosquitoes; experiment: Survival of mosquitoes injected with ang II; type: in vivo, Aedes aegypti; details: 0.5 μl ang II at 10-200 μM intrathoracically; chi-square test p>0.5; mean of three independent experiments
Experimental: Supplementary file pone.0003296.s001.tif: Figure S1 Survival of mosquitoes injected with different ang II concentrations. Ae.aegypti mosquitoes (10 females) were injected intrathoracically (0.5 μl) of ang II at 10 μM, 20 μM, 50 μM, 60 μM, 100 μM and 200 μM. After 24 hour the survival of mosquitoes was scored. […] Results are the mean of three independent experiments (20 mosquitoes/group), and bars represent standard errors of the mean. (0.18 MB TIF) Click here for additional data file.

| Compound | Hemolytic Activity [1] | time to degradation in serum [min] | time within which the peptide was degraded in serum [2] [min] | effect on mosquito survival after 24 hour [3] |
| --- | --- | --- | --- | --- |
| CC[C@H](C)[C@H](NC(=O)[C@H](Cc1ccc(O)cc1)NC(=O)[C@@H](NC(=O)[C@@H]1CCCCNC(=O)C[C@H](NC(=O)[C@@H](N)CC(=O)O)C(=O)N[C@@H](CCCNC(=N)N)C(=O)N1)C(C)C)C(=O)N[C@@H](Cc1c[nH]cn1)C(=O)N1CCC[C@H]1C(=O)N[C@@H](Cc1ccccc1)C(=O)O [VC3, Cyclo(1a-2a)[endo-(Asp^1a), endo-(Lys^2a)]-All] (H-DDRKVYIHPF-OH; lactam 2-4) | neg | < 30 | – | – |
| CC[C@H](C)[C@H](NC(=O)[C@H](Cc1ccc(O)cc1)NC(=O)[C@@H]1CCCCNC(=O)C[C@H](NC(=O)[C@H](CCCNC(=N)N)NC(=O)[C@@H](N)CC(=O)O)C(=O)N[C@@H](C(C)C)C(=O)N1)C(=O)N[C@@H](Cc1c[nH]cn1)C(=O)N1CCC[C@H]1C(=O)N[C@@H](Cc1ccccc1)C(=O)O [VC5, Cyclo(2a-3a)[endo-(Asp^2a), endo-(Lys^3a)]-All] (H-DRDVKYIHPF-OH; lactam 3-5) | neg | < 30 | – | – |
| DDRKVYIHPF [VC4, [endo-(Asp^1a), endo-(Lys^2a)]-All] | neg | < 30 | – | – |
| DRDVKYIHPF [VC6, [endo-(Asp^2a), endo-(Lys^3a)]-All] | neg | < 30 | – | – |
| CC[C@H](C)[C@H](NC(=O)[C@H](Cc1ccc(O)cc1)NC(=O)[C@@H](NC(=O)[C@H](CCCNC(=N)N)NC(=O)[C@@H]1CCCCNC(=O)C[C@H](N)C(=O)N[C@@H](CC(=O)O)C(=O)N1)C(C)C)C(=O)N[C@@H](Cc1c[nH]cn1)C(=O)N1CCC[C@H]1C(=O)N[C@@H](Cc1ccccc1)C(=O)O [VC1, Cyclo(0-1a)[Asp^0, endo-(Lys^1a)]-All] (H-DDKRVYIHPF-OH; lactam 1-3) | neg | < 30 | – | – |
| CC[C@H](C)[C@H](NC(=O)[C@H](Cc1ccc(O)cc1)NC(=O)[C@@H](NC(=O)[C@H](CCCNC(=N)N)NC(=O)[C@@H](N)CC(=O)O)C(C)C)C(=O)N[C@@H](Cc1cnc[nH]1)C(=O)N1CCC[C@H]1C(=O)N[C@@H](Cc1ccccc1)C(=O)O [ang II, Angiotensin II] | neg | – | ≤ 30 | no significant effects |
| DDKRVYIHPF [VC2, [Asp^0, endo-(Lys^1a)]-All] | neg | < 30 | – | – |
